Each block holds one compound with its values, some of them ahead of it.
Columns and labels:
Assay in all cases: Biochemical Assay
[1] = molecular target: GTPase KRas [G12S] (Homo sapiens, UniProt P01116, G12S)
Description: (§1) The purpose of this biochemical assay is to measure the ability of test compounds to covalently label nucleotide-loaded K-Ras isoforms. […] Analysis of raw data may be carried out using Waters MassLynx MS software, with % bound calculated from the deconvoluted protein peaks for labeled and unlabeled K-Ras.

[2] = molecular target: GTPase NRas [G12C] (Homo sapiens, UniProt P01111, G12C)
Sequence of GTPase NRas [G12C] (P01111 whole entry G12C): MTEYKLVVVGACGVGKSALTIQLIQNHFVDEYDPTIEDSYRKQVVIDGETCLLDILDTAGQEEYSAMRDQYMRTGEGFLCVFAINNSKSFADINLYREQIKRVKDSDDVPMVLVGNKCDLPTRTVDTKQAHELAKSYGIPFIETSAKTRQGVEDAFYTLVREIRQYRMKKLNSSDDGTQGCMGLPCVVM

[3] = molecular target: GTPase KRas [G12V] (Homo sapiens, UniProt P01116, G12V)
Sequence of GTPase KRas [G12V] (P01116 whole entry G12V): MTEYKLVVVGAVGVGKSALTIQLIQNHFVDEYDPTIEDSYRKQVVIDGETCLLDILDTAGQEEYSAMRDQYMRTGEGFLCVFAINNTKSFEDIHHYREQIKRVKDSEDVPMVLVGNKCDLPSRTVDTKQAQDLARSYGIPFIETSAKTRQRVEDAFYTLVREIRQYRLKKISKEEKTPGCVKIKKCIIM
Description: as §1

[4] = molecular target: GTPase KRas [Q61H] (Homo sapiens, UniProt P01116, Q61H)
Sequence of GTPase KRas [Q61H] (P01116 whole entry Q61H): as the sequence (P01116 whole entry G12V) above, with V12G, Q61H counted along it
Description: as §1

[5] = molecular target: GTPase KRas [G12C] (Homo sapiens, UniProt P01116, G12C)
Sequence of GTPase KRas [G12C] (P01116 whole entry G12C): as the sequence (P01116 whole entry G12V) above, with V12C counted along it
Description: as §1

[6] = molecular target: GTPase KRas [G12D] (Homo sapiens, UniProt P01116, G12D)
Sequence of GTPase KRas [G12D] (P01116 whole entry G12D): as the sequence (P01116 whole entry G12V) above, with V12D counted along it
Description: as §1

[7] = molecular target: GTPase KRas [G13C] (Homo sapiens, UniProt P01116, G13C)
Sequence of GTPase KRas [G13C] (P01116 whole entry G13C): as the sequence (P01116 whole entry G12V) above, with V12G, G13C counted along it
Description: as §1

Sequence of GTPase KRas [G12S] (P01116 whole entry G12S, canonical isoform): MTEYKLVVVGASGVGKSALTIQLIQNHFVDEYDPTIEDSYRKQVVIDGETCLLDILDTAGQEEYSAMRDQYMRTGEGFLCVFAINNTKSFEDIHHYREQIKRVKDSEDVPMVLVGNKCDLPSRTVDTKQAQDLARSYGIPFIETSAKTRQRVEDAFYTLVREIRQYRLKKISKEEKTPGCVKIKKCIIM

- IC50 [1]: 1000 to 10000 nM
- IC50 [2]: < 10 nM
Compound: CCn1c(-c2ccccc2CCOC)c2c3cc(ccc31)-c1cc(O)cc(c1)C[C@H](NC(=O)[C@H](C(C)C)N(C)C(=O)[C@H]1CCN(C(=O)C#CCN(C)C)C1)C(=O)N1CCC[C@H](N1)C(=O)OCC(C)(C)C2 [US11566007, Example A38]

- IC50 [3]: in the range around 550 nM
Compound: C=CC(=O)N1CC[C@H](C(=O)N(C)[C@H](C(=O)N[C@H]2Cc3cc(O)cc(c3)-c3ccc4c(c3)c(c(-c3cc(F)cnc3COC)n4CC)CC(C)(C)COC(=O)[C@@H]3CCCN(N3)C2=O)C(C)C)C1 [US11566007, Example A82]

- IC50 [4]: in the range around 550 nM
- IC50 [5]: in the range around 55 nM
- IC50 [6]: in the range around 5.5 µM
Compound: C=CC(=O)N1CC[C@H](C(=O)N(C)[C@H](C(=O)N[C@H]2Cc3cc(O)cc(c3)-c3ccc4c(c3)c(c(-c3ccncc3)n4C(C)(C)C#N)CC(C)(C)COC(=O)[C@@H]3CCCN(N3)C2=O)C(C)C)C1 [US11566007, Example A86]

- IC50 [7]: < 10 nM
- IC50 [1]: 100 to 1000 nM
- IC50 [2]: < 10 nM
Compound: CCn1c(-c2cccnc2COC)c2c3cc(ccc31)-c1cc(O)cc(c1)C[C@H](NC(=O)[C@H](C(C)C)N(C)C(=O)[C@H]1CCN(C(=O)C#CCN(C)C)C1)C(=O)N1CCC[C@H](N1)C(=O)OCC(C)(C)C2 [US11566007, Example A96]

Source: BindingDB's records for patent US11566007 (Revolution Medicines, 2023)
